Source: patent publication US20030027870A1, “Fullerene derivatives that modulate nitric oxide synthase and clamodulin activity” (priority 2001, published 2003)

Experiments:
[1] = molecular target: T1, nNOS (Rattus norvegicus, UniProt P29476); assay: NADPH-oxidase activity (NADPH consumption) of nNOS; type: biochemical
T1 construct: endogenous in cells; host or cells: rat GH3 pituitary cells; enzyme purified on 2',5'-ADP-agarose and calmodulin-Affi Gel 15 agarose
Method: (§1) Neuronal NOS was purified from rat GH3 pituitary cells grown in Ham's F-10 supplemented with 12.5% horse serum and 3% fetal bovine serum. Cells were homogenized in 5 volumes of 50 mM Mops, pH 7.4, 1 mM EGTA, 1 mM DTT, 100 mM NaCl, 0.5% CHAPSO, 50 μM BH4, 100 μM leupeptin, and 10 μM E64. A postmitochondrial supernatant fraction was generated by centrifugation and was affinity-purified on 2′,5′ADP-agarose as reported previously (Wolff, D. J. and Datto, G. (1992) Biochem. J. 284:201-206). The affinity-purified proteins were eluted with 50 mM Mops, pH 7.4, 1 mM EGTA, 1 mM DTT, 5 mM NADPH, 0.1% CHAPSO, 150 mM NaCl, 50 μM BH4, 100 μM leupeptin, and 10 μM E64. The eluate was adjusted to contain 2.5 mM Ca^2+ and was adsorbed to a calmodulin-Affi Gel 15 agarose column equilibrated in 50 mM Mops, 1 mM EGTA, 2.5 mM Ca^2+ 0.1% CHAPSO, 150 mM NaCl, 25 μM arginine, 1 mM DTT, 50 μM BH4, 100 μM leupeptin, and 10 μM E64. The column was washed with equilibration buffer containing 500 mM NaCl but without arginine, and nNOS was eluted with equilibration buffer containing 2.5 mM EGTA but without Ca^2+ or arginine. Fractions containing nNOS as determined by citrulline formation assay were concentrated with a Centriprep 30 (Amicon).
Standard reaction mixtures of 1 mL volume in quartz cuvettes contained 50 mM Hepes, pH 7.4, 150 μM NADPH, 6 μM CaM, 1 mM EGTA, 0.85 mM Ca^2+ and 0.15 μM BH4. Reactions were initiated by the addition of nNOS enzyme and NADPH consumption was measured from the change in light absorbance at 340 nm as compared to an identical reference cuvette without enzyme using an extinction coefficient of 6.22 mM^−1 cm^−1.

[2] = molecular target: T1, nNOS; assay: Citrulline formation assay, nNOS; type: biochemical; details: read-out: IC50 for Inhibition of Citrulline Formation
Method: (§2) Neuronal NOS was purified from rat GH3 pituitary cells grown in Ham's F-10 supplemented with 12.5% horse serum and 3% fetal bovine serum. Cells were homogenized in 5 volumes of 50 mM Mops, pH 7.4, 1 mM EGTA, 1 mM DTT, 100 mM NaCl, 0.5% CHAPSO, 50 μM BH4, 100 μM leupeptin, and 10 μM E64. A postmitochondrial supernatant fraction was generated by centrifugation and was affinity-purified on 2′,5′ADP-agarose as reported previously (Wolff, D. J. and Datto, G. (1992) Biochem. J. 284:201-206). The affinity-purified proteins were eluted with 50 mM Mops, pH 7.4, 1 mM EGTA, 1 mM DTT, 5 mM NADPH, 0.1% CHAPSO, 150 mM NaCl, 50 μM BH4, 100 μM leupeptin, and 10 μM E64. […] Fractions containing nNOS as determined by citrulline formation assay were concentrated with a Centriprep 30 (Amicon).
Citrulline formation by NOS isoforms was measured in 150 μL reaction mixtures containing 30 mM Hepes, pH 7.5, 1 mM DTT, 120 nM L-[2,3-^3H]-arginine without or with unlabeled arginine, 1 mM EGTA, 0.85 mM Ca^2+ (when present), 6 μM CaM (calmodulin, when present), 100 μM NADPH, and 300 μM BH4. Incubations were initiated by the addition of enzyme and reaction mixtures incubated for 30 min at 30° C. in duplicate and reactions stopped and analyzed as described by Wolff and Datto (Wolff and Datto, 1992). […]

[3] = molecular target: T2, iNOS (Mus musculus, UniProt P29477); assay: Citrulline formation assay, iNOS; type: biochemical, murine; details: read-out: IC50 for Inhibition of Citrulline Formation
T2 construct: Expression of iNOS was induced with 5 μg/mL of Escherichia coli lipopolysaccharide and 50 units/mL of mouse γ-interferon; endogenous in cells; host or cells: RAW 264.7 macrophages induced with LPS and interferon-gamma; enzyme purified on 2',5'-ADP-agarose and DEAE-cellulose
Method: Cytokine-inducible NOS was purified from murine RAW 264.7 macrophages grown in DMEM/Hepes, pH 7.5, supplemented with 10% fetal bovine serum. Expression of iNOS was induced with 5 μg/mL of Escherichia coli lipopolysaccharide and 50 units/mL of mouse γ-interferon. Homogeneous preparation of the iNOS was obtained through sequential purification on 2′,5′-ADP-agarose and DEAE-cellulose as described previously (Bryk, R. and Wolff, R. (1998) Biochemistry 37:4844-4852). Purified iNOS was about 95% pure as judged by a Coomassie-stained SDS-PAGE.
(§3) Citrulline formation by NOS isoforms was measured in 150 μL reaction mixtures containing 30 mM Hepes, pH 7.5, 1 mM DTT, 120 nM L-[2,3-^3H]-arginine without or with unlabeled arginine, 1 mM EGTA, 0.85 mM Ca^2+ (when present), 6 μM CaM (calmodulin, when present), 100 μM NADPH, and 300 μM BH4. Incubations were initiated by the addition of enzyme and reaction mixtures incubated for 30 min at 30° C. in duplicate and reactions stopped and analyzed as described by Wolff and Datto (Wolff and Datto, 1992). When citrulline formation was measured as a function of CaM concentration 1.5 mM Ca^2+ was employed in the assay Assay of NADPH-Oxidase Activity.

[4] = molecular target: T3, eNOS (Bos taurus, UniProt P29473); assay: Citrulline formation assay, eNOS; type: biochemical, Bovine; details: read-out: IC50 for Inhibition of Citrulline Formation
T3 construct: Bovine pulmonary arterial endothelial NOS (ENOS) was prepared; from tissue; host or cells: bovine pulmonary arterial endothelium
Method: Bovine pulmonary arterial endothelial NOS (ENOS) was prepared and characterized as described previously (Wolff, D. J. et al. (1994) Arch. Biochem. Biophys. 312:360-366).
as §3

[5] = molecular target: T4, nNOS; assay: CaM antagonists inhibiting citrulline formation by nNOS at 6 nM CaM; type: biochemical, rat; details: 30-min incubation
T4 construct: Bovine brain calmodulin was prepared; endogenous in cells; host or cells: rat GH3 pituitary cells (nNOS); bovine brain (calmodulin)

[6] = molecular target: T5, nNOS dimers (Rattus norvegicus, UniProt P29476); assay: Sucrose density gradient centrifugation of nNOS; details: fully inhibitory concentrations
T5 construct: endogenous in cells; host or cells: rat GH3 pituitary cells
Method: Samples of nNOS were either unadjusted (control) or were adjusted to 50 μM C3-tris-malonyl-C60-fullerene and were applied to a 5-20% sucrose gradient containing 50 mM Mops, pH 7.4, 150 mM NaCl, 1 mM EGTA, 1 mM DTT, 0.3% CHAPSO, and 10 μM BH4, either without (control) or containing 50 μM C3-tris-malonyl-C60-fullerene. Gradients were run at 35,000 rpm for 18 h at 4° C. in an L5-L5 Beckman Ultracentrifuge using an SW41 rotor. Fractions (375 μL) were collected using an ISCO density gradient fractionator, Model 185. The fractions from the gradient were kept on ice and portions were assayed for cytochrome c reductase activity (measures both monomers and dimers) and citrulline forming activity (measures dimers exclusively). Hemoglobin (4.09S), catalyze (11.9S), and thyoglobulin (19.4S) were run in a separate tube as sedimentation markers.

[7] = molecular target: T1, nNOS; assay: NO formation assay (oxyhemoglobin to methemoglobin), nNOS; type: biochemical; details: multisite, positively cooperative inhibition of nNOS NO formation
Method: as §2
Nitric oxide production over time was measured spectrophotometrically at 401 nm by the conversion of oxyhemoglobin to methemoglobin (Noack, E. et al. (1992) Neuroprotocols 1:133-139). […] Methemoglobin formation was monitored against a reference cuvette containing complete reaction mixture without enzyme. NO production was calculated using an extinction coefficient of 38 mM^−1 cm^−1 (Noack et al.,1992).

[8] = molecular target: T1, nNOS; assay: Cytochrome c reductase assay of nNOS; type: biochemical; details: at concentrations as high as 300 μM
Method: as §1, with “The column was washed with equilibration buffer containing 500 mM NaCl but without arginine, and nNOS was eluted with equilibration buffer containing 2.5 mM EGTA but without Ca^2+ or arginine.” left out
The cytochrome c reductase activity of nNOS was determined as described previously, (Cooper et al. (2000) Arch. Biochem. Biophys. 375:183-194) in the presence of 1 mM EGTA, 2 mM Ca^2+, and 10 μg/ml CaM. An extinction coefficient of 21 mM^−1 cm^−1 (22) was used to quantify cytochrome c reduction.

T5 sequence (P29476 whole entry): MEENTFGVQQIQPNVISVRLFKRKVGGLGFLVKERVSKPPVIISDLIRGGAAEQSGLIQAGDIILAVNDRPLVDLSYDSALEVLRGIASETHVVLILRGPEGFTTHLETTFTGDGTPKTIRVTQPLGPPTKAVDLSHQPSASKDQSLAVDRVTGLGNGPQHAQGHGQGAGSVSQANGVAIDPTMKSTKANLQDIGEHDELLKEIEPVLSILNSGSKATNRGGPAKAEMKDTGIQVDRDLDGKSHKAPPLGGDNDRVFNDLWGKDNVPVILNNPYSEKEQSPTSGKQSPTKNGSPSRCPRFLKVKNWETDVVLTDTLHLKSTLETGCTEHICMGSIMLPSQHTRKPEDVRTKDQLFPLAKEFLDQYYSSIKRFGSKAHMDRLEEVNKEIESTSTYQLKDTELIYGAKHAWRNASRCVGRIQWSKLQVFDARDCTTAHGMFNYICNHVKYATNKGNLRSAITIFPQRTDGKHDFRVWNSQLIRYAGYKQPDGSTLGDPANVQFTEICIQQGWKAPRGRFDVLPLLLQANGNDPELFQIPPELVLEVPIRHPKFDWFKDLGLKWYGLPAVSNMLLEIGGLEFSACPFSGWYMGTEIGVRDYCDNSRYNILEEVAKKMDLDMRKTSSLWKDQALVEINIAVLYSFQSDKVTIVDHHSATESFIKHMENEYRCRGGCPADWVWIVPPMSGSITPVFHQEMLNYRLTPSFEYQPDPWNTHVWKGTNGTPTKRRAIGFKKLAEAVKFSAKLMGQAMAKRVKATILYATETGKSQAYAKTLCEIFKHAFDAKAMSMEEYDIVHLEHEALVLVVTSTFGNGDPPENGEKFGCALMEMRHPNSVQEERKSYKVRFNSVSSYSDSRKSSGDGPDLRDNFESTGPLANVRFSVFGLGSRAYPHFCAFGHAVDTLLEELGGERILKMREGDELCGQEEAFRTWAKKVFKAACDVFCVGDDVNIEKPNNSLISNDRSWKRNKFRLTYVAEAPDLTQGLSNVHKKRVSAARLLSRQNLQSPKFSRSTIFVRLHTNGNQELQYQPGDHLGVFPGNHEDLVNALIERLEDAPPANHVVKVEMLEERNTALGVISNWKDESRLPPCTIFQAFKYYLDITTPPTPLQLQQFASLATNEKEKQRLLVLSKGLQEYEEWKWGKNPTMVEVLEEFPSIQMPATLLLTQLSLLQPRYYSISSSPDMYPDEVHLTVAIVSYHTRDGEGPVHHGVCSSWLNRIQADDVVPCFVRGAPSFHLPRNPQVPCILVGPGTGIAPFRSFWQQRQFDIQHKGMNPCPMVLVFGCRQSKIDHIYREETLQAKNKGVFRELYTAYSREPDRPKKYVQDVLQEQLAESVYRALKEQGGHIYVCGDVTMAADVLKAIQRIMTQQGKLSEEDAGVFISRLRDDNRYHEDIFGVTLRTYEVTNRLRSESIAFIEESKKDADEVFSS

| IC50 [5] | Compound | inhibition of arginine-independent NADPH-oxidase activity of nNOS (in words) [1] | IC50 [2] | IC50 [3] | IC50 [4] | IC50 ([1]; arginine-independent) | dissociation of nNOS dimers into monomers [6] | Hill coefficient of inhibition [7] | effects on cytochrome c reductase activity of nNOS [8] |
| --- | --- | --- | --- | --- | --- | --- | --- | --- | --- |
|  | 1,2:34,35:40,41-tris(methano)[60] fullerene-61, 61, 62, 62, 63, 63 hexacarboxylic acid, (trans-3, trans-3, trans-3) D3 symmetry isomer [D3-Tris malonyl adduct diacid] | inhibited | 86 µM | 317 µM | 143 µM |  |  |  |  |
| 0.273 µM | Clc1ccc(C(c2ccc(Cl)cc2)n2cc[n+](CC(OCc3ccc(Cl)cc3Cl)c3ccc(Cl)cc3Cl)c2)cc1 (stereo not shown) [Calmidazolium] |  |  |  |  |  |  |  |  |
|  | 1,2:18,36:31,32-Tris(methano)[60] fullerene-61, 61, 62, 62, 63, 63 hexa-carboxylic acid, (e,e,e) C3 symmetry isomer [C3-Tris malonyl adduct diacid] | inhibited | 24 µM | 123 µM | 17 µM | 22 µM | did not produce a dissociation | 2.0 | no effects |
